Measurements: PubChem BioAssay (NCI)
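Following 48 hours of exposure in 96-well plates, responses at five concentrations were used to interpolate endpoints linearly. Abbreviation: GI50, concentration required for 50% inhibition of growth. Definition used: TGI = concentration required for complete inhibition of growth.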

What was measured:
Assay in all cases: DTP human tumour cell line panel, 48 h
786-0 renal = system: 786-0 renal
A498 renal = system: A498 renal
A549 NSCLC = system: A549 NSCLC
ACHN renal = system: ACHN renal
BT-549 breast = system: BT-549 breast
CAKI-1 renal = system: CAKI-1 renal
CCRF-CEM leukemia = system: CCRF-CEM leukemia
DU-145 prostate = system: DU-145 prostate
HCC-2998 colon = system: HCC-2998 colon
HCT-116 colon = system: HCT-116 colon
HCT-15 colon = system: HCT-15 colon
HOP-92 NSCLC = system: HOP-92 NSCLC
HS 578T breast = system: HS 578T breast
HT29 colon = system: HT29 colon
IGROV1 ovarian = system: IGROV1 ovarian
LOX IMVI melanoma = system: LOX IMVI melanoma
M14 melanoma = system: M14 melanoma
MALME-3M melanoma = system: MALME-3M melanoma
MCF7 breast = system: MCF7 breast
MDA-MB-231 breast = system: MDA-MB-231 breast
NCI-H226 lung = system: NCI-H226 lung
NCI-H23 lung = system: NCI-H23 lung
NCI-H460 lung = system: NCI-H460 lung
NCI/ADR-RES ovarian = system: NCI/ADR-RES ovarian
OVCAR-3 ovarian = system: OVCAR-3 ovarian
OVCAR-4 ovarian = system: OVCAR-4 ovarian
OVCAR-5 ovarian = system: OVCAR-5 ovarian
OVCAR-8 ovarian = system: OVCAR-8 ovarian
PC-3 prostate = system: PC-3 prostate
RPMI-8226 leukemia = system: RPMI-8226 leukemia
RXF 393 renal = system: RXF 393 renal
SF-268 CNS = system: SF-268 CNS
SF-295 CNS = system: SF-295 CNS
SF-539 CNS = system: SF-539 CNS
SK-MEL-2 melanoma = system: SK-MEL-2 melanoma
SK-MEL-28 melanoma = system: SK-MEL-28 melanoma
SK-MEL-5 melanoma = system: SK-MEL-5 melanoma
SK-OV-3 ovarian = system: SK-OV-3 ovarian
SN12C renal = system: SN12C renal
SNB-19 CNS = system: SNB-19 CNS
SNB-75 CNS = system: SNB-75 CNS
TK-10 renal = system: TK-10 renal
U251 CNS = system: U251 CNS
UACC-257 melanoma = system: UACC-257 melanoma
UO-31 renal = system: UO-31 renal
COLO 205 colon = system: COLO 205 colon
EKVX NSCLC = system: EKVX NSCLC
HOP-62 NSCLC = system: HOP-62 NSCLC
K-562 leukemia = system: K-562 leukemia
KM12 colon = system: KM12 colon
MDA-MB-435 = system: MDA-MB-435
MOLT-4 leukemia = system: MOLT-4 leukemia
NCI-H522 lung = system: NCI-H522 lung
SR leukemia = system: SR leukemia
SW-620 colon = system: SW-620 colon
UACC-62 melanoma = system: UACC-62 melanoma

COc1cc2c(Oc3ccc(-c4cnc(Nc5ccc(F)cc5)n(C)c4=O)cc3F)ccnc2cc1OCCCN1CCOCC1
GI50 (786-0 renal): 1.54 µM | TGI (786-0 renal): 3.1 µM | GI50 (A498 renal): 0.95 µM | TGI (A498 renal): 2.46 µM | GI50 (A549 NSCLC): 1.66 µM | TGI (A549 NSCLC): 3.42 µM | GI50 (ACHN renal): 0.864 µM | TGI (ACHN renal): 2.15 µM | GI50 (BT-549 breast): 1.86 µM | TGI (BT-549 breast): 3.49 µM | GI50 (CAKI-1 renal): 1.05 µM | TGI (CAKI-1 renal): 2.46 µM | GI50 (CCRF-CEM leukemia): 3.04 µM | TGI (CCRF-CEM leukemia): > 100 µM | GI50 (DU-145 prostate): 1.56 µM | TGI (DU-145 prostate): 3.17 µM | GI50 (HCC-2998 colon): 1.48 µM | TGI (HCC-2998 colon): 2.94 µM | GI50 (HCT-116 colon): 1.19 µM | TGI (HCT-116 colon): 2.51 µM | GI50 (HCT-15 colon): 1.18 µM | TGI (HCT-15 colon): 2.75 µM | GI50 (HOP-92 NSCLC): 0.083 µM | TGI (HOP-92 NSCLC): 1.01 µM | GI50 (HS 578T breast): 0.933 µM | TGI (HS 578T breast): 3.4 µM | GI50 (HT29 colon): 0.311 µM | TGI (HT29 colon): 1.64 µM | GI50 (IGROV1 ovarian): 0.646 µM | TGI (IGROV1 ovarian): 2.33 µM | GI50 (LOX IMVI melanoma): 1.23 µM | TGI (LOX IMVI melanoma): 2.55 µM | GI50 (M14 melanoma): 0.442 µM | TGI (M14 melanoma): 1.82 µM | GI50 (MALME-3M melanoma): 0.291 µM | TGI (MALME-3M melanoma): 1.41 µM | GI50 (MCF7 breast): 0.783 µM | TGI (MCF7 breast): 2.47 µM | GI50 (MDA-MB-231 breast): 1.4 µM | TGI (MDA-MB-231 breast): 2.93 µM | GI50 (NCI-H226 lung): 1.16 µM | TGI (NCI-H226 lung): 8.15 µM | GI50 (NCI-H23 lung): 1.15 µM | TGI (NCI-H23 lung): 2.75 µM | GI50 (NCI-H460 lung): 1.51 µM | TGI (NCI-H460 lung): 3.22 µM | GI50 (NCI/ADR-RES ovarian): 1.94 µM | TGI (NCI/ADR-RES ovarian): 6.75 µM | GI50 (OVCAR-3 ovarian): 1.64 µM | TGI (OVCAR-3 ovarian): 3.15 µM | GI50 (OVCAR-4 ovarian): 1.74 µM | TGI (OVCAR-4 ovarian): 7.49 µM | GI50 (OVCAR-5 ovarian): 1.04 µM | TGI (OVCAR-5 ovarian): 2.45 µM | GI50 (OVCAR-8 ovarian): 1.87 µM | TGI (OVCAR-8 ovarian): 4.72 µM | GI50 (PC-3 prostate): 2.05 µM | TGI (PC-3 prostate): 6.39 µM | GI50 (RPMI-8226 leukemia): 1.84 µM | TGI (RPMI-8226 leukemia): 4.71 µM | GI50 (RXF 393 renal): 0.759 µM | TGI (RXF 393 renal): 2.04 µM | GI50 (SF-268 CNS): 1.46 µM | TGI (SF-268 CNS): 3.38 µM | GI50 (SF-295 CNS): 0.663 µM | TGI (SF-295 CNS): 1.99 µM | GI50 (SF-539 CNS): 0.464 µM | TGI (SF-539 CNS): 1.62 µM | GI50 (SK-MEL-2 melanoma): 1.53 µM | TGI (SK-MEL-2 melanoma): 3.19 µM | GI50 (SK-MEL-28 melanoma): 0.97 µM | TGI (SK-MEL-28 melanoma): 2.28 µM | GI50 (SK-MEL-5 melanoma): 1.45 µM | TGI (SK-MEL-5 melanoma): 2.77 µM | GI50 (SK-OV-3 ovarian): 1.84 µM | TGI (SK-OV-3 ovarian): 3.39 µM | GI50 (SN12C renal): 0.528 µM | TGI (SN12C renal): 2.27 µM | GI50 (SNB-19 CNS): 2.03 µM | TGI (SNB-19 CNS): 4.52 µM | GI50 (SNB-75 CNS): 0.61 µM | TGI (SNB-75 CNS): 1.91 µM | GI50 (TK-10 renal): 1.94 µM | TGI (TK-10 renal): 3.92 µM | GI50 (U251 CNS): 1.66 µM | TGI (U251 CNS): 3.2 µM | GI50 (UACC-257 melanoma): 1.1 µM | TGI (UACC-257 melanoma): 2.6 µM | GI50 (UO-31 renal): 0.906 µM | TGI (UO-31 renal): 2.21 µM

COc1cc2c(cc1OCCN1CCN(CCN3C(=O)c4cccc5cccc(c45)C3=O)CC1)N=C[C@@H]1CCCN1C2=O
GI50 (786-0 renal): 18.2 µM | TGI (786-0 renal): 33.4 µM | GI50 (A498 renal): 20.5 µM | TGI (A498 renal): 40.4 µM | GI50 (A549 NSCLC): 18.7 µM | TGI (A549 NSCLC): 47.3 µM | GI50 (ACHN renal): 17.2 µM | TGI (ACHN renal): 31.5 µM | GI50 (BT-549 breast): 19 µM | TGI (BT-549 breast): 34.9 µM | GI50 (CAKI-1 renal): 13.6 µM | TGI (CAKI-1 renal): 30.2 µM | GI50 (CCRF-CEM leukemia): 19.9 µM | TGI (CCRF-CEM leukemia): 39 µM | GI50 (COLO 205 colon): 24.8 µM | TGI (COLO 205 colon): 44.8 µM | GI50 (DU-145 prostate): 16.9 µM | TGI (DU-145 prostate): 30.6 µM | GI50 (EKVX NSCLC): 21.1 µM | TGI (EKVX NSCLC): 45.7 µM | GI50 (HCT-15 colon): 15.8 µM | TGI (HCT-15 colon): 31.1 µM | GI50 (HOP-62 NSCLC): 19.7 µM | TGI (HOP-62 NSCLC): 34.9 µM | GI50 (HS 578T breast): 24.9 µM | TGI (HS 578T breast): 54.4 µM | GI50 (HT29 colon): 22.6 µM | TGI (HT29 colon): 43.9 µM | GI50 (IGROV1 ovarian): 19.2 µM | TGI (IGROV1 ovarian): 36.9 µM | GI50 (K-562 leukemia): 25.2 µM | TGI (K-562 leukemia): 57.7 µM | GI50 (KM12 colon): 18.2 µM | TGI (KM12 colon): 39 µM | GI50 (LOX IMVI melanoma): 32.7 µM | TGI (LOX IMVI melanoma): > 100 µM | GI50 (M14 melanoma): 14.5 µM | TGI (M14 melanoma): 28.7 µM | GI50 (MCF7 breast): 15.8 µM | TGI (MCF7 breast): 32.4 µM | GI50 (MDA-MB-231 breast): 19.9 µM | TGI (MDA-MB-231 breast): 39.8 µM | GI50 (MDA-MB-435): 23.4 µM | TGI (MDA-MB-435): 48.7 µM | GI50 (MOLT-4 leukemia): 24.6 µM | TGI (MOLT-4 leukemia): 62.2 µM | GI50 (NCI-H226 lung): 20.1 µM | TGI (NCI-H226 lung): 40.3 µM | GI50 (NCI-H23 lung): 13 µM | TGI (NCI-H23 lung): 25.6 µM | GI50 (NCI-H460 lung): 18.1 µM | TGI (NCI-H460 lung): 42.8 µM | GI50 (NCI-H522 lung): 18.8 µM | TGI (NCI-H522 lung): 34.8 µM | GI50 (NCI/ADR-RES ovarian): 11.9 µM | TGI (NCI/ADR-RES ovarian): 28.2 µM | GI50 (OVCAR-3 ovarian): 15.8 µM | TGI (OVCAR-3 ovarian): 33.5 µM | GI50 (OVCAR-4 ovarian): 24.6 µM | TGI (OVCAR-4 ovarian): 47.3 µM | GI50 (OVCAR-5 ovarian): 19 µM | TGI (OVCAR-5 ovarian): 35 µM | GI50 (OVCAR-8 ovarian): 19.9 µM | TGI (OVCAR-8 ovarian): 44.3 µM | GI50 (PC-3 prostate): 18.1 µM | TGI (PC-3 prostate): 32 µM | GI50 (RPMI-8226 leukemia): 17.1 µM | TGI (RPMI-8226 leukemia): 34.8 µM | GI50 (RXF 393 renal): 14.2 µM | TGI (RXF 393 renal): 32.2 µM | GI50 (SF-268 CNS): 15.8 µM | TGI (SF-268 CNS): 33 µM | GI50 (SF-295 CNS): 22.9 µM | TGI (SF-295 CNS): 41.1 µM | GI50 (SF-539 CNS): 20.8 µM | TGI (SF-539 CNS): 45.6 µM | GI50 (SK-MEL-2 melanoma): 24.6 µM | TGI (SK-MEL-2 melanoma): 51.1 µM | GI50 (SK-MEL-28 melanoma): 32.5 µM | TGI (SK-MEL-28 melanoma): 77.7 µM | GI50 (SK-MEL-5 melanoma): 16 µM | TGI (SK-MEL-5 melanoma): 29.5 µM | GI50 (SK-OV-3 ovarian): 27.8 µM | TGI (SK-OV-3 ovarian): 46.5 µM | GI50 (SN12C renal): 23.2 µM | TGI (SN12C renal): 58.6 µM | GI50 (SNB-19 CNS): 29.9 µM | TGI (SNB-19 CNS): 53.7 µM | GI50 (SNB-75 CNS): 20.4 µM | TGI (SNB-75 CNS): 37.5 µM | GI50 (SR leukemia): 19.7 µM | TGI (SR leukemia): 41.8 µM | GI50 (SW-620 colon): 19.6 µM | TGI (SW-620 colon): 40 µM | GI50 (TK-10 renal): 19.9 µM | TGI (TK-10 renal): 37.1 µM | GI50 (U251 CNS): 16.1 µM | TGI (U251 CNS): 34.1 µM | GI50 (UACC-257 melanoma): 21.1 µM | TGI (UACC-257 melanoma): 48.3 µM | GI50 (UACC-62 melanoma): 18.2 µM | TGI (UACC-62 melanoma): 35 µM | GI50 (UO-31 renal): 18.5 µM | TGI (UO-31 renal): 32.5 µM
